This note sets out measurements from patent US20260293895A1, “HERBICIDAL DERIVATIVES” (SYNGENTA CROP PROTECTION AG, priority 2023, published 2026).

Molecules are shown by their SMILES.

What all share (format): in vivo
The subject of series [1] is Amaranthus retoflexus (AMARE). Kind of series: Pre-emergence herbicidal test, Amaranthus retoflexus (AMARE). Conditions: 250 g/ha, evaluated after 13 days, glasshouse.
Series [2] has as its system Echinochloa crus-galli (ECHCG). Kind of series: Post-emergence herbicidal test, Echinochloa crus-galli (ECHCG). The conditions noted are these: 250 g/ha, sprayed after 8 days cultivation, evaluated after 13 days, glasshouse. As for the experimental part:
(§1) Seeds of a variety of test species are sown in standard soil in pots (Setaria faberi (SETFA), Echinochloa crus-galli (ECHCG), Amaranthus palmeri (AMAPA), Zea mays (ZEAMX), Amaranthus retoflexus (AMARE),). After 8 days cultivation under controlled conditions in a glasshouse (at 24° C./16° C., day/night; 14 hours light; 65% humidity), the plants are sprayed with an aqueous spray solution derived from the formulation of the technical active ingredient in acetone/water (50:50) solution containing 0.5% Tween 20 (polyoxyethelyene sorbitan monolaurate, CAS RN 9005-64-5). Compounds are applied at 250 g/ha unless otherwise stated. The test plants are then grown in a glasshouse under controlled conditions in a glasshouse (at 24° C./16° C., day/night; 14 hours light; 65% humidity) and watered twice daily. After 13 days the test is evaluated for the percentage damage caused to the plant. The biological activities are shown in the following table on a five-point scale (5=81-100%; 4=61-80%; 3=41-60%; 2=21-40%; 1=1-20%; 0=no activity; -=not tested).

The test system of series [3] is Echinochloa crus-galli (ECHCG). Put plainly: Pre-emergence herbicidal test, Echinochloa crus-galli (ECHCG). The conditions noted are these: 250 g/ha, evaluated after 13 days, glasshouse.
The subject of series [4] is Zea mays (ZEAMX). Kind of series: Post-emergence test, Zea mays (ZEAMX). More on the design: key: 5: 81-100%; 4: 61-80%; 3: 41-60%; 21-40%; 1-20%; 0: no activity; -: not tested. The conditions noted are these: 250 g/ha, sprayed after 8 days cultivation, evaluated after 13 days, glasshouse, crop. How it is done:
as §1

Series [5] has as its system Amaranthus palmeri (AMAPA). Kind of series: Pre-emergence herbicidal test, Amaranthus palmeri (AMAPA). The conditions noted are these: 250 g/ha, evaluated after 13 days, glasshouse.
The test system of series [6] is Setaria faberi (SETFA). Kind of series: Pre-emergence herbicidal test, Setaria faberi (SETFA). Conditions: 250 g/ha, evaluated after 13 days, glasshouse.
Series [7] relates to Amaranthus retoflexus (AMARE). Kind of series: Post-emergence herbicidal test, Amaranthus retoflexus (AMARE). The conditions noted are these: 250 g/ha, sprayed after 8 days cultivation, evaluated after 13 days, glasshouse. How it is done: as §1
In series [8] the test system is Amaranthus palmeri (AMAPA). Put plainly: Post-emergence herbicidal test, Amaranthus palmeri (AMAPA). The conditions noted are these: 250 g/ha, sprayed after 8 days cultivation, evaluated after 13 days, glasshouse. As for the experimental part:
as §1

Series [9] deals with Setaria faberi (SETFA). Put plainly: Post-emergence herbicidal test, Setaria faberi (SETFA). The conditions noted are these: 250 g/ha, sprayed after 8 days cultivation, evaluated after 13 days, glasshouse. How it is done:
as §1

The test system of series [10] is Zea mays (ZEAMX). Put plainly: Pre-emergence test, Zea mays (ZEAMX). Conditions: 250 g/ha, evaluated after 13 days, glasshouse, crop.

For the compound `CCn1c(Cl)cc(=O)c(C(=O)O)c1-c1ccc(Cl)c(Cl)c1` [Compound 2, 6-chloro-2-(3,4-dichlorophenyl)-1-ethyl-4-oxo-pyridine-3-carboxylic acid], the “percentage damage caused to the plant, AMARE” value is given as 3 (41-60%) in series [1] and 1 (1-20%) in [7]. Besides, the “percentage damage caused to the plant, ECHCG” value in series [2] and in [3] was 3 (41-60%) throughout. Also, the “percentage damage caused to the plant, ZEAMX” value was 0 in series [4] and 1 (1-20%) in series [10]. Moreover, the “percentage damage caused to the plant, AMAPA” value is 2 (21-40%) in [5] and 1 (1-20%) in [8]. In addition, the “percentage damage caused to the plant, SETFA” value in series [6] is reported as 5 (81-100%); in series [9], 4 (61-80%).
